ChEMBL document CHEMBL1201862, “PubChem BioAssay data set” (2004)
Active and inactive are the calls of the source.

Legend:
[1] = target: T1, Melanocortin receptor 4 (Homo sapiens, UniProt P32245); experiment: MC4R antagonist potency on cAMP, dose response, cell-based, TR-FRET, biased antagonists (AID 602298); type: functional;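 also: antagonist potency against agonist-stimulated cAMP production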
[2] = nonselective inhibitors of cellular cAMP signaling, dose response, counter-screen for MC4R biased antagonist project, cell-based, TR-FRET cAMP detection (AID 602305); type: functional;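 also: U2OS cells stimulated with forskolin near its EC80 as the cAMP inducer; potency is for inhibition of forskolin-stimulated cAMP signaling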
[3] = target: T2, DNA repair protein RAD52 homolog (Homo sapiens, UniProt P43351); type: functional, biochemical
T2 sequence (P43351 whole entry): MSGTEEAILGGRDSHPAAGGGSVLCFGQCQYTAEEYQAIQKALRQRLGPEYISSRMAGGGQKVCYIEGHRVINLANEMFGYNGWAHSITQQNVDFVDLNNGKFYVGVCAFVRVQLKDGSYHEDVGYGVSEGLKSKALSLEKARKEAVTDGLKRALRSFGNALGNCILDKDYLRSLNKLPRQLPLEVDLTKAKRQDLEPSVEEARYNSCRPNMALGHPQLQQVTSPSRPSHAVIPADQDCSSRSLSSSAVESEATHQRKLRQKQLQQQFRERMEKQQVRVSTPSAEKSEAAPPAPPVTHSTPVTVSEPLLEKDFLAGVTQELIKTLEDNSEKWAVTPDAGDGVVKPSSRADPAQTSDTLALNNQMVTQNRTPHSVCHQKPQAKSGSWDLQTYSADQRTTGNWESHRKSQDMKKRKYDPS

[4] = target: Heat shock protein HSP 90-alpha (Homo sapiens, UniProt P07900); type: functional, organism-based
[5] = target: T1, Melanocortin receptor 4; type: functional, cell-based
[6] = test system: INS1; experiment: beta cell apoptosis inhibitors, cytokine rescue, dose response, luminescence, retest (AID 449756); type: functional, cell-based; settings: Rattus norvegicus;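 also: cell death triggered by IL-1 beta plus TNF-alpha plus IFN-gamma mixture; protective hits raise ATP signal compared with cytokine alone wells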
[7] = target: Potassium voltage-gated channel subfamily KQT member 2 (Rattus norvegicus, UniProt O88943); experiment: KCNQ2 potassium channel inhibitors, dose response, cell-based, automated electrophysiology, set II, rat KCNQ2 (AID 588637); type: functional
[8] = cells; type: functional, cell-based; settings: HEK-CNG
[9] = target: Galanin receptor type 3 (Homo sapiens, UniProt O60755); experiment: Fluorescence-based cell-based primary high throughput dose response assay to identify antagonists of the Galanin Receptor 3 (GalR3).; type: functional
Galanin receptor type 3, sequence (O60755 whole entry): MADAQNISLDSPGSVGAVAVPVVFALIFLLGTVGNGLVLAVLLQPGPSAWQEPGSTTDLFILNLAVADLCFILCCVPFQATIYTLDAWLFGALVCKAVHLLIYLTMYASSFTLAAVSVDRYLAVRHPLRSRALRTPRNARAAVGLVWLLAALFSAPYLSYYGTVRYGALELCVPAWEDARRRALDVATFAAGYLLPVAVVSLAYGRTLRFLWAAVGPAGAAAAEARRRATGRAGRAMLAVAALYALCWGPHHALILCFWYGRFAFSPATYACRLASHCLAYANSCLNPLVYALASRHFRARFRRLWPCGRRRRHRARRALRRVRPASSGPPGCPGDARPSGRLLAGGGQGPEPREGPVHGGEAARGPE

[10] = HepG2 cell cytotoxicity, dose response, cytotoxicity control for Shn3 inhibitor project, CellTiter-Glo, cherry-picked (AID 624134); type: functional, cell-based
[11] = control 3'UTR Renilla luciferase suppression, dose response, counter-screen for Shn3 inhibitor project, cell-based, Clone20-Shn3RL, cherry-picked (AID 624133); type: functional
[12] = Shn3 3'UTR reporter inhibitors, dose response, cell-based, Clone20 osteoblasts, firefly luciferase, cherry-picked (AID 624132); type: functional;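 also: firefly luciferase luminescence from reporter carrying the Shn3 3'UTR in osteoblasts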
[13] = target: T3, Streptokinase A (Streptococcus pyogenes serotype M1, UniProt P10520); experiment: S. pyogenes streptokinase expression inhibitors, potency, dose response, plasminogen activation absorbance, OD405 (AID 1914); type: functional, Streptococcus pyogenes M1 GAS;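 also: secreted streptokinase activity via plasminogen activation per viability signal from cell pellet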
T3 sequence (P10520 whole entry): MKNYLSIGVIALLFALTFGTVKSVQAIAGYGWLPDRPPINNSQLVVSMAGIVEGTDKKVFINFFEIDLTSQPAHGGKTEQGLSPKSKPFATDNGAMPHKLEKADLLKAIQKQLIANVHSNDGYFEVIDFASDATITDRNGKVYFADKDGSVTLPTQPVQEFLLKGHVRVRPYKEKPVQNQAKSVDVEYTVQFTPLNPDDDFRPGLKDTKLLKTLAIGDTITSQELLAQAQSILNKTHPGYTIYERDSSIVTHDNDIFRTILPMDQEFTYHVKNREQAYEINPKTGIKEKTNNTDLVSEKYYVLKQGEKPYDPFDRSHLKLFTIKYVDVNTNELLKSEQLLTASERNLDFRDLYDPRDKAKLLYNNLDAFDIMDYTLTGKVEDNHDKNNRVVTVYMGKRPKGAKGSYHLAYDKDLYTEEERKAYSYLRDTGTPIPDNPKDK

[14] = target: T4, Probable nicotinate-nucleotide adenylyltransferase (Staphylococcus aureus (strain N315), UniProt P65502); type: functional, Staphylococcus aureus subsp. aureus N315; settings: read-out: IC50_Mean;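 as to IC50 Mean: confirmatory dose-response retesting of NadD inhibitor hits first found in an ultra-high-throughput screen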
T4 sequence (P65502 whole entry): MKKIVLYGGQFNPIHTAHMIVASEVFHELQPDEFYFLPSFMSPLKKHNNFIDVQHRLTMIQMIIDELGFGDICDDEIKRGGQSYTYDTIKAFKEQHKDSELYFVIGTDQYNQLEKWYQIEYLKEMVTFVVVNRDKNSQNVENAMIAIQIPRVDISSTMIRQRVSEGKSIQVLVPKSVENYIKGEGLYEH

[15] = target: T4, Probable nicotinate-nucleotide adenylyltransferase; type: functional, Staphylococcus aureus subsp. aureus N315
[16] = target: T5, Small ubiquitin-related modifier 1 (Homo sapiens, UniProt P63165); experiment: inhibitors of SUMO1 peptide binding, dose response, biochemical, fluorescence polarization, uHTS hits (AID 624382); type: functional; settings: read-out: IC50_Mean
T5 sequence (P63165 whole entry): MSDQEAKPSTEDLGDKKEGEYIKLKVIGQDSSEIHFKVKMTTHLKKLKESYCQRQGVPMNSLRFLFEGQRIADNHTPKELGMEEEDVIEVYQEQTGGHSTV

[17] = target: Dual specificity tyrosine-phosphorylation-regulated kinase 1A (Rattus norvegicus, UniProt Q63470); type: biochemical, Homo sapiens
[18] = target: DNA (cytosine-5)-methyltransferase 1 (Homo sapiens, UniProt P26358); experiment: DNMT1 methyltransferase inhibitors, confirmation, biochemical, fluorescent molecular beacon (AID 602386); type: functional
DNA (cytosine-5)-methyltransferase 1, sequence (P26358 whole entry): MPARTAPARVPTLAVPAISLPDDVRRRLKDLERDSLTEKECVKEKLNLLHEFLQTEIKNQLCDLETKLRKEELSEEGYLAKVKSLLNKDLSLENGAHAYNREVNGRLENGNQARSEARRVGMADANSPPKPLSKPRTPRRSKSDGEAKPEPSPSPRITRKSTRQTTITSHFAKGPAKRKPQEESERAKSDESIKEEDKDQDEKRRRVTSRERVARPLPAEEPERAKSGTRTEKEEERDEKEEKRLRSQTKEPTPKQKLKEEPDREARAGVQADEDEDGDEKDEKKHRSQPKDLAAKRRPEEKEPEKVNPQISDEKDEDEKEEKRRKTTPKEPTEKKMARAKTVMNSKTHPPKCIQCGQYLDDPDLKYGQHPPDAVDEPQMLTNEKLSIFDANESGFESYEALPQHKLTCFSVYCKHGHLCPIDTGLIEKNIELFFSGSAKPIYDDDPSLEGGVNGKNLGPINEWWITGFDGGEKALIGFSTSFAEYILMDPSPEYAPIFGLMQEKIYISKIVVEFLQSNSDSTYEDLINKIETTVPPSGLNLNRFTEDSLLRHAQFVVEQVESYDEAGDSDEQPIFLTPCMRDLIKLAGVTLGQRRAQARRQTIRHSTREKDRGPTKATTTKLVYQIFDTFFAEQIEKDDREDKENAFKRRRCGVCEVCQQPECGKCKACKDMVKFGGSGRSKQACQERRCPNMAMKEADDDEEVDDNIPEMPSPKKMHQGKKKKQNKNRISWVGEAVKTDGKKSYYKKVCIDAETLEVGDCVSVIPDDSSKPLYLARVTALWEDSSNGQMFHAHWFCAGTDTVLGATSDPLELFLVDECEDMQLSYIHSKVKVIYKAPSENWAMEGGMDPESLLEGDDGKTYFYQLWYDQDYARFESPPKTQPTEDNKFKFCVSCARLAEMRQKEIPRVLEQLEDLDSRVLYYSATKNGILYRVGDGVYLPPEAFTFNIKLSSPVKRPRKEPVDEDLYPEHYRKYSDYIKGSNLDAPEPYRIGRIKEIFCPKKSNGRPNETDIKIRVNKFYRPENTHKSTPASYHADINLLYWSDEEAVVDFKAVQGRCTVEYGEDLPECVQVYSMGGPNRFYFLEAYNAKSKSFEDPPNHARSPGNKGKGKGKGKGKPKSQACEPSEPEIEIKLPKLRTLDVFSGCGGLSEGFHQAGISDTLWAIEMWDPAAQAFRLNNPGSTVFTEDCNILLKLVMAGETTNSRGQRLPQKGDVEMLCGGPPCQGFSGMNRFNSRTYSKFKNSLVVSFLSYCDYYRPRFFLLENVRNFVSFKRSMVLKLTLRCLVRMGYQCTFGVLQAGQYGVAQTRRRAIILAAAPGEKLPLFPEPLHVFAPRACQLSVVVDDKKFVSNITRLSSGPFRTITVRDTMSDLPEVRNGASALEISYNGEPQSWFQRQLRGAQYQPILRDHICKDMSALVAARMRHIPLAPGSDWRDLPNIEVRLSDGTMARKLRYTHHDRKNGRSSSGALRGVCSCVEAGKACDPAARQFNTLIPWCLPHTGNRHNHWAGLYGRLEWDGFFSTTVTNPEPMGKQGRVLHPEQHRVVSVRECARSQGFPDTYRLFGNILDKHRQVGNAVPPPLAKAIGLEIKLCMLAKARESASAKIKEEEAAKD

[19] = target: T5, Small ubiquitin-related modifier 1; experiment: inhibitors of SUMO1 partner interactions, dose response, biochemical, FRET (AID 624383); type: functional; settings: read-out: IC50_Mean
[20] = test system: Streptococcus; experiment: Group A Streptococcus viability loss, dose response, counter-screen for streptokinase expression inhibitor project, luminescence, BacTiterGlo (AID 1915); type: functional, organism-based;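 also: potency for reduction of bacterial viability or growth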
[21] = test system: Streptococcus sp. 'group A'; experiment: growth inhibition of control SK(-) GAS strain, dose response, counter-screen for streptokinase expression inhibitor project, luminescence, kanamycin, BacTiterGlo, confirmation (AID 1900); type: functional, organism-based
[22] = inhibitors of clade B AD8 Env fusion, dose response, cell-based, cherry-pick (AID 652062); type: functional;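 also: luciferase signal from cell-cell fusion driven by HIV-1 clade B AD8 Env; potency is for inhibitors of fusion seen as a drop in luminescence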
[23] = target: T6, High affinity choline transporter 1 (Homo sapiens, UniProt Q9GZV3); experiment: CHT inhibitors, dose response, cell-based, 5-point CRC, membrane potential dye (AID 504840); type: functional
T6 sequence (Q9GZV3 whole entry): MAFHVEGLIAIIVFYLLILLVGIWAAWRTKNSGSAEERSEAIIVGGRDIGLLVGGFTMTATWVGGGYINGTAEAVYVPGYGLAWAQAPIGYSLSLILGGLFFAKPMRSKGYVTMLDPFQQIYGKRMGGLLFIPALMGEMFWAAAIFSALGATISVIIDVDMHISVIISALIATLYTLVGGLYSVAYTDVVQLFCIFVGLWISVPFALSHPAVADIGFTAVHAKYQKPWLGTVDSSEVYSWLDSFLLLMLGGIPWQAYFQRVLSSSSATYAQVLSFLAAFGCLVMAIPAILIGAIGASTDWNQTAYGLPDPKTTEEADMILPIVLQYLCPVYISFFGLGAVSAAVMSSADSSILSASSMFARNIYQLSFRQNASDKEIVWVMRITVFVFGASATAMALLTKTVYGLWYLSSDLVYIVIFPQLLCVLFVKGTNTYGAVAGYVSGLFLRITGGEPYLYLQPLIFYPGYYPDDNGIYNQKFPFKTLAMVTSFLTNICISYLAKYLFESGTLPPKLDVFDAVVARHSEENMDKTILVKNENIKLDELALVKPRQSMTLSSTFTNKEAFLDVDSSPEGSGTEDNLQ

[24] = target: T6, High affinity choline transporter 1; experiment: CHT inhibitors, dose response, cell-based, 10-point CRC, membrane potential dye (AID 588401); type: functional;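 also: membrane potential dye fluorescence of choline-evoked depolarization via CHT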
[25] = target: Aurora kinase A (Homo sapiens, UniProt O14965); type: functional;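 also: value from the Navigating the Kinome kinase panel profiling, panel entry STK6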
Aurora kinase A, sequence (O14965 whole entry): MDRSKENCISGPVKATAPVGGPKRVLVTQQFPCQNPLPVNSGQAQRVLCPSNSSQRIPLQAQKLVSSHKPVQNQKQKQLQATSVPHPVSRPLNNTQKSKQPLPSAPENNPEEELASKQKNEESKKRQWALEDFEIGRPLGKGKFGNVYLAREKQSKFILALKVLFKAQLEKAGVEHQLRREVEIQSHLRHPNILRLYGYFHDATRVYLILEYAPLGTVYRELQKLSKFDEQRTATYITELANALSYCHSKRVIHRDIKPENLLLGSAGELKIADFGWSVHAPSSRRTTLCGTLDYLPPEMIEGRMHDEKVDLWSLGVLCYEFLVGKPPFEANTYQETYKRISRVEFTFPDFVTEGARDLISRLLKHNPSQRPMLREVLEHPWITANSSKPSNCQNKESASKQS

[26] = target: Aurora kinase B (Homo sapiens, UniProt Q96GD4); type: functional
Aurora kinase B, sequence (Q96GD4 whole entry): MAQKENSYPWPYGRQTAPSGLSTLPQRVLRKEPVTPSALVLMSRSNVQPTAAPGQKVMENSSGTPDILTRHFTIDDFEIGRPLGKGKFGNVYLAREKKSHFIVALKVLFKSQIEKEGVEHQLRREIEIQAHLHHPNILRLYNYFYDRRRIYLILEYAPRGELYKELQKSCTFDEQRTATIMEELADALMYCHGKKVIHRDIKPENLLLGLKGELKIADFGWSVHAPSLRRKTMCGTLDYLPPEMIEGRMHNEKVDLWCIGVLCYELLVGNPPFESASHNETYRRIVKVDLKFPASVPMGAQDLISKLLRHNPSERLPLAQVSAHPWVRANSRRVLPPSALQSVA

[27] = target: Large T antigen (Simian virus 40, UniProt P03070); type: functional, Betapolyomavirus macacae;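 also: Confirmatory-stage PubChem screen for compounds that inhibit SV40 T antigen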
Large T antigen, sequence (P03070 whole entry): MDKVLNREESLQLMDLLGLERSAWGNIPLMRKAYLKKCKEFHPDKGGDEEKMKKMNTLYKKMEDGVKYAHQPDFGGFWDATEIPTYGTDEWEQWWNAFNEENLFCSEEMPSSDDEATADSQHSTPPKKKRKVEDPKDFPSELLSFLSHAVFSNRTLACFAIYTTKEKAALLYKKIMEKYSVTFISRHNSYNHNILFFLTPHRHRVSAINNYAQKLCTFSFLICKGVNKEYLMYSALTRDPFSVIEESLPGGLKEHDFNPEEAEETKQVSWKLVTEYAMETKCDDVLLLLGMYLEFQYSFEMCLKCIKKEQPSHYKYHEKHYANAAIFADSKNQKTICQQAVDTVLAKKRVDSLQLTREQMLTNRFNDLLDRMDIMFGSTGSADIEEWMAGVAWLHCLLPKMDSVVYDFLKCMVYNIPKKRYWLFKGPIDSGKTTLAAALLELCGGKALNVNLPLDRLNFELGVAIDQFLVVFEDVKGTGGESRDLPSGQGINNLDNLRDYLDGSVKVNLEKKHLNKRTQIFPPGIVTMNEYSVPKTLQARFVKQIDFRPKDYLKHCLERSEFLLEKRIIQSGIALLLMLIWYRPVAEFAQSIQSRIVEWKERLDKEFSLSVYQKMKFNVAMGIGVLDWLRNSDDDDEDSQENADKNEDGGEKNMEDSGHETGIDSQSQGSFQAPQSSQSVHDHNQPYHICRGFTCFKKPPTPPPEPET

[28] = target: T7, Protein RecA (Mycobacterium tuberculosis, UniProt P9WHJ3); experiment: Fluorescence Cell-Free Homogeneous Dose Retest to Identify Inhibitors of RecA-Intein Splicing Activity. [Related pubchem assays (depositor defined):AID2097, AID2223, AID489010, AID492950]; type: functional
T7 sequence (P9WHJ3 whole entry): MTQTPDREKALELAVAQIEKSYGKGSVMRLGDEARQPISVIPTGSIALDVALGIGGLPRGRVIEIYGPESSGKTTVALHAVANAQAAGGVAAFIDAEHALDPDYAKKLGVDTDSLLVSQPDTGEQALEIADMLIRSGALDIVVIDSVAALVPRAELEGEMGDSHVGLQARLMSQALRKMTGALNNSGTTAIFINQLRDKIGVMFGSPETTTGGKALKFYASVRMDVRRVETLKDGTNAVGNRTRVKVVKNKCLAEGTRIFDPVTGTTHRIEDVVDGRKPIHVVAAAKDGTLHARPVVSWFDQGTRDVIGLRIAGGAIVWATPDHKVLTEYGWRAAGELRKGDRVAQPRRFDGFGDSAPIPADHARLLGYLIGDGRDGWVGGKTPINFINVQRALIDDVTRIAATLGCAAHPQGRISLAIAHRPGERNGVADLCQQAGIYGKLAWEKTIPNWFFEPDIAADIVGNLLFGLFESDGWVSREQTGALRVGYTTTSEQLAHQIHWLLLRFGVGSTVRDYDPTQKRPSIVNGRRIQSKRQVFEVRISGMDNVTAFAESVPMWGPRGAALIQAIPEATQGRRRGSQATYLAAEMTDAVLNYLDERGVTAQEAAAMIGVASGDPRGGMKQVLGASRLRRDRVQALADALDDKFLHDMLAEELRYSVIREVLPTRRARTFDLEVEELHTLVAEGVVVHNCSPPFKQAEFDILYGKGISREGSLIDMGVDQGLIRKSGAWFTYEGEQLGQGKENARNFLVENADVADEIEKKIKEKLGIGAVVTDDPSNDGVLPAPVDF

[29] = target: ATP-binding cassette sub-family B member 6 (Homo sapiens, UniProt Q9NP58); experiment: ABCB6 transporter inhibitors, dose response, K562-ABCB6 cells, flow cytometry, cherry pick 1 (AID 623955); type: functional; settings: read-out: EC50_MICROM
ATP-binding cassette sub-family B member 6, sequence (Q9NP58 whole entry): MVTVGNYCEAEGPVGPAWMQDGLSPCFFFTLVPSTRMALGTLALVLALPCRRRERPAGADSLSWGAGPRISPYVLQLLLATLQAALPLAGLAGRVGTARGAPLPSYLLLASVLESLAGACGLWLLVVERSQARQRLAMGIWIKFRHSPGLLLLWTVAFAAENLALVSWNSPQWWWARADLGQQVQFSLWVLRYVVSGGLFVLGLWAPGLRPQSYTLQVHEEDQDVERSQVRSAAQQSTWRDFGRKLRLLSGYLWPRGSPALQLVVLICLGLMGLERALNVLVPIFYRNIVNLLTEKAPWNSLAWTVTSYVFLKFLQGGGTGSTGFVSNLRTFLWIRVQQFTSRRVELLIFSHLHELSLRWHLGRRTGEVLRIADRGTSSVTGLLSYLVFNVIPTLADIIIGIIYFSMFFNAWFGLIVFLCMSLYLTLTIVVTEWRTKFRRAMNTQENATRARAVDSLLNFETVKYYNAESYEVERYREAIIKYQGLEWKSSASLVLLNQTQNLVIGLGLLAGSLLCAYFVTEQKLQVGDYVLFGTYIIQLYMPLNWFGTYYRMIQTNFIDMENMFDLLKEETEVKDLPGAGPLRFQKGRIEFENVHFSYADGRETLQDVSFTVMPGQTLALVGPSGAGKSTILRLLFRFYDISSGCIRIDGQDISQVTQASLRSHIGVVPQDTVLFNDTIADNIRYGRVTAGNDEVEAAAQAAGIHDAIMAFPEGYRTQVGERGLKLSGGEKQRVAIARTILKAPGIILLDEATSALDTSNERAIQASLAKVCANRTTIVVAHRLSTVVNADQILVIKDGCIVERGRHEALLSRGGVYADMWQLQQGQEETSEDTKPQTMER

[30] = target: T8, Replicative DNA helicase DnaB (Mycobacterium tuberculosis, UniProt P9WMR3); experiment: DnaB intein splicing inhibitors, dose response, biochemical, cell-free fluorescence (AID 449749); type: functional
T8 sequence (P9WMR3 whole entry): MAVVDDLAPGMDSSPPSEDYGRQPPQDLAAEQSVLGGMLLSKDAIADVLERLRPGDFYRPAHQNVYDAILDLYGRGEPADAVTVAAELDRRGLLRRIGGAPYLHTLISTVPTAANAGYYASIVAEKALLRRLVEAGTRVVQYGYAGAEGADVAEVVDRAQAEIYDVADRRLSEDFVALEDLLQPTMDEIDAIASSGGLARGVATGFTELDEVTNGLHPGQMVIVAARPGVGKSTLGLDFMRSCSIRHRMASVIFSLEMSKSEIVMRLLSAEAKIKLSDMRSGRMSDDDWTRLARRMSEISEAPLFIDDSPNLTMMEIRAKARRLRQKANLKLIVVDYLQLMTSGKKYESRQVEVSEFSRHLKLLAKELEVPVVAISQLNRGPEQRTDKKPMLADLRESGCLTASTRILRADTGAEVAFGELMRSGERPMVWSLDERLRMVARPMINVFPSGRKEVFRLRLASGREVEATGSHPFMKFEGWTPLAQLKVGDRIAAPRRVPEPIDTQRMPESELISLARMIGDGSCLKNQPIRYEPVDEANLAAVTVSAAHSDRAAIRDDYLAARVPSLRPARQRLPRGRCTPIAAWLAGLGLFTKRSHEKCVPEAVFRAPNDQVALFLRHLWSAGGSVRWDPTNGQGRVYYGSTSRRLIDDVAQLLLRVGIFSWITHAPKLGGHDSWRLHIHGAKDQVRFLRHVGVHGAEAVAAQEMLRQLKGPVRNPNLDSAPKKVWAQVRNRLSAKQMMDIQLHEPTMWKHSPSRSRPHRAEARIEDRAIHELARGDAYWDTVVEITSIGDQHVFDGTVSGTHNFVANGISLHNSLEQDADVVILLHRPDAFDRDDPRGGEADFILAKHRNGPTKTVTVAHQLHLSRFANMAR

T1 sequence (P32245 whole entry): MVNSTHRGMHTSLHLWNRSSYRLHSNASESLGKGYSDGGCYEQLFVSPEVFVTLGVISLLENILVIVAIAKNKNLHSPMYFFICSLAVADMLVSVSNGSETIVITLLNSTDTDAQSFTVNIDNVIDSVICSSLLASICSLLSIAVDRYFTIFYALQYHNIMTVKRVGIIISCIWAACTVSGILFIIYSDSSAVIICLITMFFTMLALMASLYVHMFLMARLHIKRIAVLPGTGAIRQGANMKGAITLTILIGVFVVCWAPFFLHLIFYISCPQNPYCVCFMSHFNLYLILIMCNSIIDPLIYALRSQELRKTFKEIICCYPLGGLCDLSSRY

## O=C(CSc1c2c(nc3cc(Cl)ccc13)CCCC2)NCCN1CCOCC1
[1]
  IC50: > 64.6 µM (inactive)
[2]
  IC50: > 64.6 µM (inactive)

## CCCCCCCCCCCCCCCC[n+]1cccc(C(=O)N(CC)CC)c1
[3]
  AC50: 5.29 µM (active)
[4]
  AC50: 9.18 µM (active)
[5]
  EC50: > 89.2 µM (inactive)

## CN1/C(=C\C(=S)NC(=O)c2cccc(Br)c2)C(C)(C)c2ccccc21
[6]
  AC50: 3.96 µM (active)
[7]
  IC50: 4.27 µM (active)

## CC(=O)OC[C@]12CC[C@H]3[C@@](C)(CC[C@H]4C(C)(C)CCC[C@]34C)[C@@H]1CC(C1=CC(=O)OC1O)O2 (some centres undefined)
[8]
  EC50: > 29.9 µM (inactive)
[1]
  IC50: 15.2 µM (inactive)
[9]
  IC50: > 1.11 µM (active)
[10]
  AC50: 8.6 µM (active)
[11]
  AC50: 3.12 µM (active)
[2]
  IC50: 55 µM (inactive)
[12]
  AC50: 0.634 µM (active)

## O=S(=O)(Nc1c(S(=O)(=O)c2ccccc2)c2nc3ccccc3nc2n1C1CCCCC1)c1ccccc1
[13]
  EC50: 5.18 µM (active)
[14]
  IC50: 21.7 µM (active)
[15]
  IC50: 5.42 µM (active)
[16]
  IC50: > 66.6 µM (inactive)
[17]
  AC50: 26.7 µM (active)
[18]
  IC50: 5.23 µM (active)
[19]
  IC50: 9.65 µM (active)
[20]
  EC50: 12 µM (active)
[21]
  EC50: 5.18 µM (active)

## Cc1cc(Cl)c(S(=O)(=O)N2CCCC2)cc1OCC(=O)NC1CCCCC1
[22]
  AC50: 18.1 µM (active)
[23]
  IC50: 4.68 µM (active)
[24]
  IC50: 4.47 µM (active)

## Nc1ncnc2sc3c(c12)-c1ccc(NC(=O)Nc2cccc(C(F)(F)F)c2)cc1CC3
[25]
  Ki: 0.1 µM (active)
[26]
  Ki: 0.00126 µM (active)

## CCOC(=O)c1c(N)ssc1=S
[23]
  IC50: 8.48 µM (active)
[27]
  IC50: 95.5 µM (active)
[24]
  IC50: 3.81 µM (active)

## Cc1cccc(NC(=O)c2nc(S(=O)(=O)Cc3ccccc3)ncc2Cl)c1
[6]
  AC50: 10.3 µM (active)
[28]
  EC50: 10.6 µM (active)
[29]
  EC50: 21.5 µM (active)
[10]
  AC50: 17.5 µM (active)
[4]
  AC50: 2.42 µM (active)
[30]
  AC50: 21.9 µM (active)
[11]
  AC50: 6.26 µM (active)
[12]
  AC50: 2.66 µM (active)
